Where “and” joins values, the source holds several entries; their conditions need not be identical. Identical values can stand only once.
Assays:
CypA = CypA (Homo sapiens, UniProt P62937); assay: CypA binding affinity (KD1), SPR; conditions: average of 18 replicate experiments; read-out: affinity for CypA protein (KD1)
Experimental: The binding affinity of compounds for CypA was assessed by surface plasmon resonance (SPR) on Biacore 8K instrument. AviTag-CypA was immobilized on a streptavidin sensor chip, and varying compound concentrations were flowed over the chip in assay buffer (10 mmol/L HEPES-NaOH pH 7.4, 150 mmol/L NaCl, 0.005% v/v Surfactant P20, 2% v/v DMSO). The SPR sensograms were fit using either a steady-state affinity model or a 1:1 binding (kinetic) model to assess the KD1 for CypA binding.

Dusp6 mRNA in ear skin = assay: In vivo PD by Dusp6 qPCR and PK/PD relationship; design: species or system mouse; conditions: for % inhibition of DUSP6 vs control: sheet Ear Skin
Experimental: (§1) Tumor-bearing animals were randomized and assigned into groups (n = 1–10/group). The vehicle at 10 mL/kg or RMC-6236 at indicated doses was administered via oral gavage daily, and animals were treated for 28 days, or up to 90 days if PFS was being assessed. […] For single-dose PKPD study, mice were randomized and assigned into groups (n = 3/dose/time point). A single dose of RMC-6236 was administered orally at either 3, 10, or 25 mg/kg. Blood and tissues, including the tumor, brain, colon, ear skin, and muscle, were harvested at indicated time points. Whole blood was collected in K2EDTA Microtainer tubes, incubated for 5 minutes, and snap-frozen in liquid nitrogen. The tissue was either fixed in 10% formalin or snap-frozen in liquid nitrogen for further analysis.
(§2) RNA was extracted from at least 20 mg of tissue using an RNeasy Mini Kit (Qiagen, 74104) and a High-Throughput Tissue grinder following the manufacturer's protocol. Reverse transcription was carried out using High-Capacity cDNA Reverse Transcription Kit (ABI, 4368814) according to the manufacturer's protocol. The cDNA product was used for qPCR analysis using TaqMan Gene-Expression Master Mix (ABI, 4369016). TaqMan primer probes specific to DUSP6 (human—Hs00737962_m1, murine—Mm00518185_m1, FAM-MGB) and 18S (RNA18S1; human—Hs99999901_s1, murine—Mm03928990_g1, FAM-MGB, used as an internal control gene) were used to detect the levels from each sample in duplicates using a 10 µL final reaction volume in a 384-well clear optical reaction plate. For qPCR, Ct values of DUSP6 and 18S were obtained for analysis. DUSP6 Ct value was normalized to 18S, and then the mean relative mRNA expression levels of each group were normalized to the vehicle control group. Values were plotted as relative change in mRNA expression compared with vehicle. Means ± SEM were shown.
(§3) Concentrations of RMC-6236 in tumor or normal tissues and percentage of DUSP6 inhibition as compared with the vehicle control from individual animals were collected and analyzed post a single dose of RMC-6236 ranging from 0.3 to 100 mg/kg (Supplementary Table S6). A 3-parameter sigmoidal exposure–response model was fitted to the data in GraphPad Prism to derive EC50 and EC90 values.

Dusp6 mRNA in colon = assay: In vivo PD by Dusp6 qPCR and PK/PD relationship; design: species or system mouse; conditions: for % inhibition of DUSP6 vs control: sheet colon
Experimental: as §1, §2, §3

wild-type HRAS = wild-type HRAS (Homo sapiens, UniProt P01112+P62937); assay: RAS-RAF TR-FRET; assay type: biochemical; conditions: 25 µmol/L CypA, read-out: EC50, disruption of RAF-RBD binding
Sequence of wild-type HRAS (P01112 1-169): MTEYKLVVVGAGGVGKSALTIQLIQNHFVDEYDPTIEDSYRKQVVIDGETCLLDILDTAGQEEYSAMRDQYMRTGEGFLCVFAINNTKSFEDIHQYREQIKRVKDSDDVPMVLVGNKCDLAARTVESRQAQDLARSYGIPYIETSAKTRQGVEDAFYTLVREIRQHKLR
Sequence of wild-type HRAS (P62937 whole entry): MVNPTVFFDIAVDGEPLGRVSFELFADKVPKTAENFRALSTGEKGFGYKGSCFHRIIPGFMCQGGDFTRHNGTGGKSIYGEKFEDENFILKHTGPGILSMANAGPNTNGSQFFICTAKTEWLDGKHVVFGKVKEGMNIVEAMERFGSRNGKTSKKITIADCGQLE

CCn1c(-c2cc(N3CCN(C)CC3)cnc2[C@H](C)OC)c2c3cc(ccc31)-c1csc(n1)C[C@H](NC(=O)[C@H]1C[C@@H]1C)C(=O)N1CCC[C@H](N1)C(=O)OCC(C)(C)C2 [RMC-6236]
EC50 (Dusp6 mRNA in ear skin; Mus musculus, read-out: EC50, inhibition of Dusp6 expression vs RMC-6236 concentration (PK/PD relationship)): 1160 nM
EC90 (Dusp6 mRNA in ear skin; Mus musculus, read-out: EC90, inhibition of Dusp6 expression vs RMC-6236 concentration (PK/PD relationship)): 10300 nM
% inhibition of DUSP6 vs control (Dusp6 mRNA in ear skin; model Capan-2, study Capan-2 #3_PHA 2023, 10 mg/kg, 2h): 42.9575% and 52.5293% and 38.4381%
% inhibition of DUSP6 vs control (Dusp6 mRNA in ear skin; model Capan-2, study Capan-2 #3_PHA 2023, 10 mg/kg, 4h): 58.9598% and 71.2804% and 61.0388%
% inhibition of DUSP6 vs control (Dusp6 mRNA in ear skin; model Capan-2, study Capan-2 #3_PHA 2023, 10 mg/kg, 24h): 3.733% and 0%
% inhibition of DUSP6 vs control (Dusp6 mRNA in ear skin; model Capan-2, study Capan-2 #3_PHA 2023, 10 mg/kg, 48h): 6.69% and 0%
% inhibition of DUSP6 vs control (Dusp6 mRNA in ear skin; model Capan-2, study Capan-2 #3_PHA 2023, 25 mg/kg, 2h): 80.2475% and 68.4632% and 48.9455%
% inhibition of DUSP6 vs control (Dusp6 mRNA in ear skin; model Capan-2, study Capan-2 #3_PHA 2023, 25 mg/kg, 4h): 91.4616% and 90.6888% and 92.061%
% inhibition of DUSP6 vs control (Dusp6 mRNA in ear skin; model Capan-2, study Capan-2 #3_PHA 2023, 25 mg/kg, 8h): 84.5561% and 76.0166% and 82.9823%
% inhibition of DUSP6 vs control (Dusp6 mRNA in ear skin; model Capan-2, study Capan-2 #3_PHA 2023, 25 mg/kg, 24h): 0%
% inhibition of DUSP6 vs control (Dusp6 mRNA in ear skin; model Capan-2, study Capan-2 #3_PHA 2023, 25 mg/kg, 48h): 0%
% inhibition of DUSP6 vs control (Dusp6 mRNA in ear skin; model Capan-2, study Capan-2 #3_PHA 2023, 50 mg/kg, 2h): 78.2346% and 81.5063% and 55.09%
% inhibition of DUSP6 vs control (Dusp6 mRNA in ear skin; model Capan-2, study Capan-2 #3_PHA 2023, 50 mg/kg, 4h): 93.2074% and 87.1476% and 69.7478%
% inhibition of DUSP6 vs control (Dusp6 mRNA in ear skin; model Capan-2, study Capan-2 #3_PHA 2023, 50 mg/kg, 8h): 88.8886% and 90.1237% and 86.7863%
% inhibition of DUSP6 vs control (Dusp6 mRNA in ear skin; model Capan-2, study Capan-2 #3_PHA 2023, 100 mg/kg, 2h): 57.6595% and 75.6818% and 80.5868%
% inhibition of DUSP6 vs control (Dusp6 mRNA in ear skin; model Capan-2, study Capan-2 #3_PHA 2023, 100 mg/kg, 4h): 89.3781% and 78.2346% and 89.488%
% inhibition of DUSP6 vs control (Dusp6 mRNA in ear skin; model Capan-2, study Capan-2 #3_PHA 2023, 100 mg/kg, 8h): 93.8569% and 95.7308% and 92.061%
% inhibition of DUSP6 vs control (Dusp6 mRNA in ear skin; model Capan-2, study Capan-2 #3_PHA 2023, 100 mg/kg, 24h): 30.7393% and 61.1736%
% inhibition of DUSP6 vs control (Dusp6 mRNA in ear skin; model KP-4, study KP-4 #5, 25 mg/kg, 4h): 90.5424% and 91.5353% and 93.5179%
% inhibition of DUSP6 vs control (Dusp6 mRNA in ear skin; model KP-4, study KP-4 #5, 25 mg/kg, 8h): 80.3499% and 66.4912% and 89.8987%
EC50 (Dusp6 mRNA in colon; Mus musculus, colon of tumor-bearing BALB/c nude mice, read-out: EC50, inhibition of Dusp6 expression vs RMC-6236 concentration (PK/PD relationship)): 1710 nM
EC90 (Dusp6 mRNA in colon; Mus musculus, colon of tumor-bearing BALB/c nude mice, read-out: EC90, inhibition of Dusp6 expression vs RMC-6236 concentration (PK/PD relationship)): 15400 nM
% inhibition of DUSP6 vs control (Dusp6 mRNA in colon; Capan-2, Capan-2 #3_PHA 2023, 3 mg/kg, 2h): 37.2913% and 60.5871% and 58.0501%
% inhibition of DUSP6 vs control (Dusp6 mRNA in colon; Capan-2, Capan-2 #3_PHA 2023, 3 mg/kg, 4h): 61.1298% and 32.7904% and 59.3384%
% inhibition of DUSP6 vs control (Dusp6 mRNA in colon; Capan-2, Capan-2 #3_PHA 2023, 3 mg/kg, 8h): 84.3228% and 73.9972% and 54.4116%
% inhibition of DUSP6 vs control (Dusp6 mRNA in colon; Capan-2, Capan-2 #3_PHA 2023, 3 mg/kg, 24h): 0%
% inhibition of DUSP6 vs control (Dusp6 mRNA in colon; Capan-2, Capan-2 #3_PHA 2023, 10 mg/kg, 2h): 57.1687% and 58.484% and 80.9648%
% inhibition of DUSP6 vs control (Dusp6 mRNA in colon; Capan-2, Capan-2 #3_PHA 2023, 10 mg/kg, 4h): 72.1309% and 81.8034% and 73.7254%
% inhibition of DUSP6 vs control (Dusp6 mRNA in colon; Capan-2, Capan-2 #3_PHA 2023, 10 mg/kg, 8h): 81.8664% and 78.1343% and 82.9039%
% inhibition of DUSP6 vs control (Dusp6 mRNA in colon; Capan-2, Capan-2 #3_PHA 2023, 10 mg/kg, 24h): 0% and 4.621%
% inhibition of DUSP6 vs control (Dusp6 mRNA in colon; Capan-2, Capan-2 #3_PHA 2023, 25 mg/kg, 2h): 88.2825% and 80.9648% and 65.0894%
% inhibition of DUSP6 vs control (Dusp6 mRNA in colon; Capan-2, Capan-2 #3_PHA 2023, 25 mg/kg, 4h): 67.0868% and 83.3714% and 61.2642%
% inhibition of DUSP6 vs control (Dusp6 mRNA in colon; Capan-2, Capan-2 #3_PHA 2023, 25 mg/kg, 8h): 50.4575% and 35.7513% and 63.8583%
% inhibition of DUSP6 vs control (Dusp6 mRNA in colon; Capan-2, Capan-2 #3_PHA 2023, 25 mg/kg, 24h): 0%
% inhibition of DUSP6 vs control (Dusp6 mRNA in colon; Capan-2, Capan-2 #3_PHA 2023, 25 mg/kg, 48h): 0%
% inhibition of DUSP6 vs control (Dusp6 mRNA in colon; Capan-2, Capan-2 #3_PHA 2023, 50 mg/kg, 4h): 52.3107% and 83.9934% and 66.044%
% inhibition of DUSP6 vs control (Dusp6 mRNA in colon; Capan-2, Capan-2 #3_PHA 2023, 50 mg/kg, 24h): 0%
% inhibition of DUSP6 vs control (Dusp6 mRNA in colon; Capan-2, Capan-2 #3_PHA 2023, 50 mg/kg, 48h): 0%
% inhibition of DUSP6 vs control (Dusp6 mRNA in colon; Capan-2, Capan-2 #3_PHA 2023, 100 mg/kg, 2h): 67.4272% and 86.2096% and 68.6456%
% inhibition of DUSP6 vs control (Dusp6 mRNA in colon; Capan-2, Capan-2 #3_PHA 2023, 100 mg/kg, 4h): 65.0894% and 44.0683% and 74.5323%
% inhibition of DUSP6 vs control (Dusp6 mRNA in colon; Capan-2, Capan-2 #3_PHA 2023, 100 mg/kg, 8h): 70.4396% and 92.2693% and 83.0807%
% inhibition of DUSP6 vs control (Dusp6 mRNA in colon; Capan-2, Capan-2 #3_PHA 2023, 100 mg/kg, 24h): 0%
% inhibition of DUSP6 vs control (Dusp6 mRNA in colon; Capan-2, Capan-2 #3_PHA 2023, 100 mg/kg, 48h): 0%
% inhibition of DUSP6 vs control (Dusp6 mRNA in colon; KP-4, KP-4 #5, 25 mg/kg, 4h): 76.482% and 79.4553% and 90.4818%
% inhibition of DUSP6 vs control (Dusp6 mRNA in colon; KP-4, KP-4 #5, 25 mg/kg, 8h): 84.9604% and 85.3209% and 74.5306%
% inhibition of DUSP6 vs control (Dusp6 mRNA in colon; KP-4, KP-4 #5, 25 mg/kg, 24h): 0%
% inhibition of DUSP6 vs control (Dusp6 mRNA in colon; KP-4, KP-4 #5, 25 mg/kg, 48h): 0%
EC50 (wild-type HRAS): 82 nM

Reference: paper PMC11149917, “Translational and Therapeutic Evaluation of RAS-GTP Inhibition by RMC-6236 in RAS-Driven Cancers” (Cancer Discovery, 2024)
